# Measured values taken from patent US20260137820A1, “TRIFUNCTIONAL COMPOUND AND USE THEREOF” (PEKING UNIVERSITY, priority 2022, published 2026).
# Tests used:
# HT-1080-FAP cells = assay: Determination of IC50 in cell experiment (competition with ^68Ga-FAPI-04); type: cell-based; conditions: Homo sapiens; vs 0.75 nM ^68Ga-FAPI-04, 37° C., 1 hour
# Method: Cell model: A human fibrosarcoma cell line (HT-1080-FAP) with high FAP expression was constructed by transfection of an FAP plasmid into a human fibrosarcoma cell line (HT-1080) by WuXi Biologics (China).
# HT-1080-FAP cells were inoculated into a 24-well plate 24 hours in advance, with the density being about 30% (calculated and estimated), 10^5 cells (countable) per well. 0.5 mL of a complete medium was added. The medium was changed to a serum-free medium. 12 groups of FAPI-CB-01 solutions with a concentration gradient of 0-5000 nM were set up, with internal replicates n=4 for each group. […] 0.75 nM ^68Ga-FAPI-04 was added to each well, followed by incubation at 37° C. for 1 hour. After washing twice with cold PBS and lysis, the radioactivity count was measured.
# Human FAP Protein = biological target: T1, Human FAP Protein (Homo sapiens, UniProt Q12884); assay: Surface plasmon resonance, multi-cycle mode; type: binding; conditions: SPR multi-cycle
# T1 construct: His; purchased Novoprotein (China)
# T1 sequence (Q12884 1-760): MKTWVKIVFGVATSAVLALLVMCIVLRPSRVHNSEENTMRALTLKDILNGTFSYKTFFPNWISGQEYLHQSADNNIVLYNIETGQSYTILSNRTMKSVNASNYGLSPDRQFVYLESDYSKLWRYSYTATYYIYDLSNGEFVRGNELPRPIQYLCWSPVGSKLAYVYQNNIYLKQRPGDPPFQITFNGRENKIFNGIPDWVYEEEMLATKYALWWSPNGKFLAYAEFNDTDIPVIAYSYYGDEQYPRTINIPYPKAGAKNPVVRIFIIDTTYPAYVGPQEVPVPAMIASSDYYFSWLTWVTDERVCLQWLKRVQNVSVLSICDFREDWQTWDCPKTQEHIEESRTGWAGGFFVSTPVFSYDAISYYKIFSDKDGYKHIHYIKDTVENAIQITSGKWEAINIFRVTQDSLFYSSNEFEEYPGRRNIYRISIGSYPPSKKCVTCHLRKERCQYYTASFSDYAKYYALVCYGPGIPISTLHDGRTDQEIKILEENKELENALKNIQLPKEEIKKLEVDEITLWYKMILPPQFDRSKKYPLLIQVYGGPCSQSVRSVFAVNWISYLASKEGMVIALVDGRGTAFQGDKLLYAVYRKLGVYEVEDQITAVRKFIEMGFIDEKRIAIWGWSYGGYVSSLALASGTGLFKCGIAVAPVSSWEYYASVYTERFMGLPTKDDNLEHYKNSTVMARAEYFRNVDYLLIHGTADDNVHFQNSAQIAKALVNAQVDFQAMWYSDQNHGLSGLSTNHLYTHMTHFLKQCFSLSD
# Method: According to US Pharmacopeia USP43 IMMUNOLOGICAL TEST METHODS-SURFACE PLASMON RESONANCE<1105> and Chinese Pharmacopoeia 2020, Volume IV, Surface plasmon resonance method, Label-free Immunochemistry (IV), 3429 Immunochemistry, General Rule, a surface plasmon resonance experiment was carried out.
# A surface plasma chromatograph from Cytiva was used for measurement. Before protein injection, 400 mM condensing agent 1-ethyl-(3-dimethylaminopropyl)carbodiimide hydrochloride and 100 mM N-hydroxysuccinimide were mixed, and a CM5 sensor chip was activated with this mixture for 420 seconds at a flow rate of 10 μL/min. 50 μg/mL protein was then injected into an Fc2 sample channel at a flow rate of 10 μL/min to achieve a protein immobilization level of about 8000-15000 RU. In the control group, no protein was injected. Subsequently, the unreacted chip was blocked with 1M ethanolamine hydrochloride-NaOH at a flow rate of 10 μL/min for 420 seconds.
# Different gradient solutions were injected into channels Fc1-Fc2 at a flow rate of 30 μL/min, followed by a 60-second binding phase and a 90-second dissociation phase, and data were collected.
compound,measurement,setting,value
N#C[C@@H]1CC(F)(F)CN1C(=O)CNC(=O)c1ccnc2ccc(OCCCN3CCN(C(=O)[C@H](CCCCNC(=O)c4ccc(OS(=O)(=O)F)cc4)NC(=O)CN4CCN(CC(=O)O)CCN(CC(=O)O)CCN(CC(=O)O)CC4)CC3)cc12 [FAPI-CB-01],IC50,HT-1080-FAP cells,11.6 ± 0.32 nM
same,affinity compared with FAPI-04,Human FAP Protein,improved by approximately two orders of magnitude
same,binding rate compared with FAPI-04,Human FAP Protein,significantly increased
same,dissociation rate compared with FAPI-04,Human FAP Protein,decreased
same,Kd,Human FAP Protein; 1:1 binding model,0.00462 nM
same,Rmax (maximum theoretical analyte binding capacity),Human FAP Protein; 1:1 binding model,29.3 RU
same,kd,Human FAP Protein; 1:1 binding model,4.79e-05 s⁻¹
same,kon,"Human FAP Protein; 1:1 binding model, read-out: ka",1.04e+07 M⁻¹ s⁻¹
